The source of these data is patent US6352703B1, “Compositions and methods for detecting and killing termites” (Board of Supervisors of Louisiana State University and …, priority 1997, dated 2002).

In one assay the test system is C. formosanus. The assay can be described thus: Trail-following bioassay. Format: in vivo, Coptotermes formosanus Shiraki. On the procedure: (§1) C. formosanus workers were used in the initial bioassay for trail-following behavior. The trail-following bioassay was conducted on two overlapped pencil circles of radius 3 cm. The circumference of each circle passed through the center of the other circle. Each sample was streaked along one of the circles with a 4 μl-micropipette on nonabsorptive paper. A solvent (control) was streaked along the overlapping circle. After the solvent evaporated, one worker was placed in the center of overlap between the two circles. The arena was covered with a red plastic container to reduce visible light and extraneous air flow. To score the worker's activity, one point was given for each continuous 3 cm traveled by a termite over a one minute period. Three replications were performed for each fraction. A new termite was used and new circles were drawn for each trial.
(§2) Trail-following bioassays with standard 2-phenoxyethanol followed procedures that were essentially identical to those for the HPLC fraction screening bioassay described above, except that each trial was replicated 10 times; and that workers and soldiers of both C. formosanus and Reticulitermes spp. were tested. Four concentrations of 2-phenoxyethanol, 0.32, 0.032, 0.0032, 0.00032 μg/cm were used in the bioassays.

In another assay the test system is Reticulitermes spp. The assay can be described thus: Trail-following bioassay. In kind it is in vivo. On the procedure:
as §1, §2

Assay [1] concerns Mucor spp. fungus. The assay can be described thus: Antifungal filter paper disk test, trial 1 (Sabouraud dextrose agar). In kind it is cell-based. On the procedure:
Mucor was isolated from a Formosan termite nest in our laboratory, a nest originally collected from a cottonwood tree in New Orleans, La. The fungus comprised a white mat that covered large areas of the nest that had been exposed to air and water. Fungus was scraped from the nest and suspended in distilled, de-ionized water with a Pasteur pipette. This suspension was streaked on Sabouraud dextrose agar (“SDA”) (Difco Laboratories, Detroit, Mich.) in 100×15 mm plates containing 20 mL SDA. Pure cultures were obtained from individual colonies on these plates as needed. Cultures were maintained on SDA plates in a 27° C. incubator without light until used.
Filter paper disks (Whatman #1, 1.5 cm) were treated with naphthalene, butylated hydroxytoluene (BHT), dioctyl phthalate, or adipic dioctyl ester, at rates of 2 μg, 20 μg, or 200 μg, dissolved in 100 μL hexane. Controls were treated with hexane alone. For each treatment, just prior to testing for antifungal properties, 1 mL of the hexane solution and ten filter paper disks were placed in a vial, and N2 was used to evaporate the hexane.
A suspension was prepared by scraping Mucor conidia (spores) from the culture plates, and mixing into distilled, deionized water with a Pasteur pipette. A thin layer of this suspension was spread over the surface of each of 130 SDA plates by placing each plate onto an inoculation turntable (Fisher Scientific, Hampton, N.H.), pipetting 0.2 mL of the suspension into the center of the plate, spinning the turntable, and spreading the suspension onto the agar with a bent glass rod. The plates were allowed to dry for two hours. A treated filter paper disk was then placed in the center of each plate (10 plates/treatment), and the plates were incubated at 27° C. The extent to which each filter paper disk was covered by fungus was determined by visual inspection (by the method described in greater detail below) after four, five, and six days.
(§3) Fungal growth on each filter paper disk was recorded by making tracings of the disks, inking in areas with visible fungal growth. The fraction of each disk covered by fungus was measured by making photocopy enlargements of these drawings, cutting out the enlarged disks, weighing the entire circle, cutting out the inked areas of the circle (corresponding to fungal growth), and weighing the latter. The fraction of each circle covered with fungus was then calculated as the ratio of these weights. (The weight of the photocopy toner was negligible.)
(§4) Coverage of filter paper disks was analyzed by the ANOVA procedure (SAS Institute, Version 6.11, Cary, N.C.). Tukey's Studentized Range (HSD) Test was used for comparison of mean separations (α=0.05).

Assay [2] has as its system Mucor spp. fungus. The assay can be described thus: Antifungal filter paper disk test, trial 2 (cornmeal agar, sealed plates). Format: cell-based. How it is done:
A second trial was conducted with filter papers treated with naphthalene, BHT, or 2,6-di-t-butyl-4-methyl-phenol (“DBP”). A fungal suspension was prepared as in the first trial. Spore concentrations were determined with a counting chamber (Petroff-Hauser, Hauser Scientific Partnership, Horsham, Pa.). Concentrations were adjusted to approximately 10^7 spores/mL. In the first trial fungus grew on SDA quickly, forming a thick mat that soon filled the entire petri dish. Therefore, in the second trial cornmeal agar (CMA, Difco Laboratories, Detroit, Mich.) was used to slow the growth of the fungus during the six-day observation period. A thin layer of the spore suspension was spread over the surface of each of 24 cornmeal agar plates using a turntable and bent glass rod, as previously described.
(§5) Filter paper disks were treated with naphthalene, BHT, or DBP at rates of 2 μg, 20 μg, or 200 μg, prepared as in the first trial. On each plate were placed four filter paper disks spaced equidistant from one another (one disk containing each of the three application rates of one of the test compounds, and one disk containing only the hexane control). Each plate was then covered and sealed with parafilm to reduce the release of volatile compounds. The concentration of naphthalene in the headspace was 0.04 μg/cm^3; except in trial 3 below, in which the concentration was 34.6 μg/cm^3, about 700 times the concentration we have observed in termite nest materials. The growth of fungus on and around each filter paper disk was recorded three, four, and five days after treatment. The experiment was then repeated, increasing the rates of naphthalene, BHT, and DBP to 200 μg, 600 μg, and 1000 μg (trial 3).
as §3, §4

Assay [3] relates to Mucor spp. fungus. Briefly: Antifungal filter paper disk test, trial 3 (cornmeal agar, sealed plates, increased rates). Format: cell-based. How it is done:
A second trial was conducted with filter papers treated with naphthalene, BHT, or 2,6-di-t-butyl-4-methyl-phenol (“DBP”). A fungal suspension was prepared as in the first trial. Spore concentrations were determined with a counting chamber (Petroff-Hauser, Hauser Scientific Partnership, Horsham, Pa.). Concentrations were adjusted to approximately 10^7 spores/mL. In the first trial fungus grew on SDA quickly, forming a thick mat that soon filled the entire petri dish. […] A thin layer of the spore suspension was spread over the surface of each of 24 cornmeal agar plates using a turntable and bent glass rod, as previously described.
as §5, with “The growth of fungus on and around each filter paper disk was recorded three, four, and five days after treatment.” left out
as §3, §4

Setting [4] is: trial 2, 0 μg disk (hexane only) on the same sealed plate as the compound's treated disks.
[5] abbreviates: trial 3, 0 μg disk (hexane only) on the same sealed plate as the compound's treated disks.

Molecules are shown by their SMILES.

As for `OCCOc1ccccc1` [2-phenoxyethanol], the Trail-following behavior entry with C. formosanus (0.00032 μg/cm) is given as “Limited trail-following activity”; in the assay on C. formosanus (C. formosanus workers and soldiers, 0.32, 0.032 and 0.0032 μg/cm) it was “elicited trail-following behaviors”; with Reticulitermes spp. (0.00032 μg/cm), “Limited trail-following activity”; in the assay with Reticulitermes spp. (Reticulitermes spp. workers and soldiers, 0.32, 0.032 and 0.0032 μg/cm), “elicited trail-following behaviors”.

On to `CCCCCCCCOC(=O)CCCCC(=O)OCCCCCCCC` [Adipic dioctyl ester, adipic dioctyl ester], for which, in the assay with Mucor spp. fungus [1] (trial 1, rate 2 μg per disk), the “Fraction Covered, Day 4 (mean percentage of filter paper disk surface covered by fungus)” value is reported as 44%; the “Fraction Covered, Day 5 (mean percentage of filter paper disk surface covered by fungus)” value is 83%; the “Fraction covered, Day 6 (mean percentage of filter paper disk surface covered by fungus)” value came out at 94%. In addition, in the assay on Mucor spp. fungus [1] (trial 1, rate 20 μg per disk), the “Fraction Covered, Day 4 (mean percentage of filter paper disk surface covered by fungus)” value was found to be 20%; the “Fraction Covered, Day 5 (mean percentage of filter paper disk surface covered by fungus)” value is reported as 80%; the “Fraction covered, Day 6 (mean percentage of filter paper disk surface covered by fungus)” value stood at 62%. For the same molecule, in the assay on Mucor spp. fungus [1] (trial 1, rate 200 μg per disk), the “Fraction Covered, Day 4 (mean percentage of filter paper disk surface covered by fungus)” value is given as 20%; the “Fraction Covered, Day 5 (mean percentage of filter paper disk surface covered by fungus)” value amounted to 75%; the “Fraction covered, Day 6 (mean percentage of filter paper disk surface covered by fungus)” value came to 91%.

On to `Cc1cc(C(C)(C)C)c(O)c(C(C)(C)C)c1` [DBP, 2,6-di-t-butyl-4-methyl-phenol], for which the “Fraction Covered, Day 3 (mean percentage of filter paper disk surface covered by fungus)” value is recorded as 96% in the assay with Mucor spp. fungus [2] (setting [4]); 98% in the assay with Mucor spp. fungus [2] (trial 2, rate 2 μg per disk); 92% with Mucor spp. fungus [2] (trial 2, rate 20 μg per disk); 81% with Mucor spp. fungus [2] (trial 2, rate 200 μg per disk); 40% in the assay with Mucor spp. fungus [3] (setting [5]); 0% in the assay on Mucor spp. fungus [3] (trial 3, rate 200 μg per disk). The “Fraction Covered, Day 3 (mean percentage of filter paper disk surface covered by fungus)” value is on record as 1% with Mucor spp. fungus [3] (trial 3, rate 600 μg per disk) and 0% in the assay with Mucor spp. fungus [3] (trial 3, rate 1000 μg per disk). The “Fraction Covered, Day 4 (mean percentage of filter paper disk surface covered by fungus)” value in the assay with Mucor spp. fungus [2] (setting [4]) is given as 100%; in the assay with Mucor spp. fungus [2] (trial 2, rate 2 μg per disk), 99%; in the assay on Mucor spp. fungus [2] (trial 2, rate 20 μg per disk) it was 95%; with Mucor spp. fungus [2] (trial 2, rate 200 μg per disk) it was 91%; in the assay with Mucor spp. fungus [3] (setting [5]), 100%; in the assay on Mucor spp. fungus [3] (trial 3, rate 200 μg per disk), 94%. In addition, the “Fraction Covered, Day 4 (mean percentage of filter paper disk surface covered by fungus)” value in the assay with Mucor spp. fungus [3] (trial 3, rate 600 μg per disk) is recorded as 100%; in the assay with Mucor spp. fungus [3] (trial 3, rate 1000 μg per disk) it was 91%. The “Fraction Covered, Day 5 (mean percentage of filter paper disk surface covered by fungus)” value in the assay with Mucor spp. fungus [2] (setting [4]) came out at 100%; in the assay with Mucor spp. fungus [2] (trial 2, rate 2 μg per disk), 99%; in the assay with Mucor spp. fungus [2] (trial 2, rate 20 μg per disk), 98%; with Mucor spp. fungus [2] (trial 2, rate 200 μg per disk) it was 99%; in the assay with Mucor spp. fungus [3] (setting [5]), 100%; in the assay on Mucor spp. fungus [3] (trial 3, rate 200 μg per disk) it was 93%. Also, the “Fraction Covered, Day 5 (mean percentage of filter paper disk surface covered by fungus)” value with Mucor spp. fungus [3] (trial 3, rate 600 μg per disk) was determined as 100%; in the assay with Mucor spp. fungus [3] (trial 3, rate 1000 μg per disk), 97%. In the assay with Mucor spp. fungus [3] (trial 3, fourth day), the “Fungal coverage of treated disks” value is recorded as roughly 100%.

Regarding `CCCCCCCCOC(=O)c1ccccc1C(=O)OCCCCCCCC` [Dioctyl phthalate, dioctyl phthalate], in the assay with Mucor spp. fungus [1] (trial 1, rate 2 μg per disk), the “Fraction Covered, Day 4 (mean percentage of filter paper disk surface covered by fungus)” value is recorded as 67%; the “Fraction Covered, Day 5 (mean percentage of filter paper disk surface covered by fungus)” value is listed as 78%; the “Fraction covered, Day 6 (mean percentage of filter paper disk surface covered by fungus)” value is reported as 89%. Besides, in the assay with Mucor spp. fungus [1] (trial 1, rate 20 μg per disk), the “Fraction Covered, Day 4 (mean percentage of filter paper disk surface covered by fungus)” value came out at 32%; the “Fraction Covered, Day 5 (mean percentage of filter paper disk surface covered by fungus)” value is on record as 49%; the “Fraction covered, Day 6 (mean percentage of filter paper disk surface covered by fungus)” value was determined as 88%. In addition, in the assay on Mucor spp. fungus [1] (trial 1, rate 200 μg per disk), the “Fraction Covered, Day 4 (mean percentage of filter paper disk surface covered by fungus)” value is listed as 57%; the “Fraction Covered, Day 5 (mean percentage of filter paper disk surface covered by fungus)” value is 69%; the “Fraction covered, Day 6 (mean percentage of filter paper disk surface covered by fungus)” value turned out to be 82%.
